Laboratory results taken from patent US20120083522A1, “MODULATION OF INFLAMMATORY RESPONSES BY FACTOR XI” (Isis Pharmaceuitcals, inc., priority 2009, published 2012).
In the oligonucleotide strings, read from the 5' end, every base follows the letter of its sugar. An asterisk marks phosphorothioate; unmarked linkages are phosphodiester. Other units and linkages are bracketed, terminal groups are in braces. A string of capitals states the bases alone. e = 2'-O-(2-methoxyethyl) (MOE); [5mC] = 5-methylcytosine; d = 2'-deoxy (DNA)

How the values were obtained:
human Factor XI mRNA = assay: Dose-dependent inhibition and IC50 in HepG2 cells, microwalk gapmers, electroporation (Example 16); assay type: cell-based
Method: These gapmers were tested at various doses in HepG2 cells. Cells were plated at a density of 20,000 cells per well and transfected using electroporation with 375 nM, 750 nM, 1,500 nM, 3,000 nM, 6,000 nM and 12,000 nM concentrations of antisense oligonucleotide, as specified in Table 54. After a treatment period of approximately 16 hours, RNA was isolated from the cells and Factor XI mRNA levels were measured by quantitative real-time PCR. Human Factor XI primer probe set RTS 2966 was used to measure mRNA levels. Factor XI mRNA levels were adjusted according to total RNA content, as measured by RIBOGREEN. Results are presented as percent inhibition of Factor XI, relative to untreated control cells.
ISIS 416850, ISIS 416858, ISIS 445522, and ISIS 445531 (see Table 52 above) were re-tested in vitro along with the microwalk gapmers under the same conditions described above.
The chimeric antisense oligonucleotides in Table 53 were designed as 3-8-3 MOE, 4-8-4 MOE, 2-10-2 MOE, 3-10-3 MOE, or 4-10-4 MOE gapmers. The 3-8-3 gapmer is 14 nucleotides in length, wherein the central gap segment is comprised of eight 2′-deoxynucleotides and is flanked on both sides (in the 5′ and 3′ directions) by wings comprising three nucleotides each. The 4-8-4 gapmer is 16 nucleotides in length, wherein the central gap segment is comprised of eight 2′-deoxynucleotides and is flanked on both sides (in the 5′ and 3′ directions) by wings comprising four nucleotides each. The 2-10-2 gapmer is 14 nucleotides in length, wherein the central gap segment is comprised of ten 2′-deoxynucleotides and is flanked on both sides (in the 5′ and 3′ directions) by wings comprising two nucleotides each. The 3-10-3 gapmer is 16 nucleotides in length, wherein the central gap segment is comprised of ten 2′-deoxynucleotides and is flanked on both sides (in the 5′ and 3′ directions) by wings comprising three nucleotides each. The 4-10-4 gapmer is 18 nucleotides in length, wherein the central gap segment is comprised of ten 2′-deoxynucleotides and is flanked on both sides (in the 5′ and 3′ directions) by wings comprising four nucleotides each. For each of the motifs (3-8-3, 4-8-4, 2-10-2, 3-10-3, and 4-10-4), each nucleotide in the 5′ wing segment and each nucleotide in the 3′ wing segment has a 2′-MOE modification. The internucleoside linkages throughout each gapmer are phosphorothioate (P═S) linkages. All cytidine residues throughout each gapmer are 5-methylcytidines. “Human Target start site” indicates the 5′-most nucleotide to which the gapmer is targeted in the human sequence. “Human Target stop site” indicates the 3′-most nucleotide to which the gapmer is targeted in the human sequence. Each gapmer listed in Table 53 is targeted to SEQ ID NO: 1 (GENBANK Accession No. NM_000128.3). Each gapmer is Table 53 is also fully cross-reactive with the rhesus monkey Factor XI gene sequence, designated herein as SEQ ID NO: 274 (exons 1-15 GENBANK Accession No. NW—001118167.1). ‘Rhesus monkey start site’ indicates the 5′-most nucleotide to which the gapmer is targeted in the rhesus monkey sequence. ‘Rhesus monkey stop site’ indicates the 3′-most nucleotide to which the gapmer is targeted to the rhesus monkey sequence.
The first two listed gapmers in Table 54 are the original gapmers (ISIS 416850 and ISIS 416858) from which the remaining gapmers were designed via microwalk and are designated by an asterisk.

Factor XI mRNA = assay: Cynomolgus monkeys, 25 mg/kg: liver Factor XI RNA analysis (Example 30); assay type: in vivo; details: for Factor XI mRNA in liver (in words): cynomolgus monkeys, day 55, in comparison to the PBS control
Method: (§1) Groups, each consisting of two male and two female monkeys, were injected subcutaneously with 25 mg/kg of ISIS 416850, ISIS 449709, ISIS 445522, ISIS 449710, ISIS 449707, ISIS 449711, ISIS 449708, 416858 and ISIS 445531. Antisense oligonucleotide was administered to the monkeys at 25 mg/kg three times per week for week 1 and 25 mg/kg twice per week for weeks 2 to 8. A control group, consisting of two male and two female monkeys was injected subcutaneously with PBS according to the same dosing regimen. Body weights were taken 14 days and 7 days before the start of treatment and were then measured weekly throughout the treatment period. Blood samples were collected 14 days and 5 days before the start of treatment and subsequently several times during the dosing regimen for measurement of various hematologic factors. On day 55, the monkeys were euthanized by exsanguination while under deep anesthesia, and organs harvested for further analysis.
On day 55, RNA was extracted from liver tissue for real-time PCR analysis of Factor XI using primer probe set LTS00301. Results are presented as percent inhibition of Factor XI, relative to PBS control.

Factor XI protein = assay: Cynomolgus monkeys: plasma Factor XI protein ELISA (Example 30); assay type: in vivo; details: for Inhibition of Factor XI protein relative to the PBS control: 25 mg/kg s.c., plasma ELISA
Method: as §1
Plasma samples from all monkey groups taken on different days were analyzed by a sandwich-style ELISA assay (Affinity Biologicals Inc.) using an affinity-purified polyclonal anti-Factor XI antibody as the capture antibody and a peroxidase-conjugated polyclonal anti-Factor XI antibody as the detecting antibody. Monkey plasma was diluted 1:50 for the assay. Peroxidase activity was expressed by incubation with the substrate o-phenylenediamine. The color produced was quantified using a microplate reader at 490 nm and was considered to be proportional to the concentration of Factor XI in the samples.
The results are presented in Table 148, expressed as percentage reduction relative to that of the PBS control.

[1] = test system: IL-1β, IL-6, IFN-γ, TNF-α, IL-8, MIP-1α, MCP-1, MIP-10, RANTES; assay: Cynomolgus monkeys: cytokine and chemokine assays (Example 30); assay type: in vivo
Method: as §1
Blood samples obtained from all monkey groups were sent to Pierce Biotechnology (Woburn, Mass.) for measurements of chemokine and cytokine levels. Levels of IL-1β, IL-6, IFN-γ, and TNF-α were measured using the respective primate antibodies and levels of IL-8, MIP-1α, MCP-1, MIP-10 and RANTES were measured using the respective cross-reacting human antibodies. Measurements were taken 14 days before the start of treatment and on day 55, when the monkeys were euthanized.

[2] = day −14 (before start of treatment)

449711 (antisense eA*e[5mC]*dA*dG*dT*dT*dT*d[5mC]*dT*dG*dG*d[5mC]*eA*eG) [compound 449711]
percent inhibition of Factor XI mRNA (human Factor XI mRNA; electroporation, 375 nM): 6%
percent inhibition of Factor XI mRNA (human Factor XI mRNA; electroporation, 750 nM): 14%
percent inhibition of Factor XI mRNA (human Factor XI mRNA; electroporation, 1,500 nM): 1%
percent inhibition of Factor XI mRNA (human Factor XI mRNA; electroporation, 3,000 nM): 7%
percent inhibition of Factor XI mRNA (human Factor XI mRNA; electroporation, 6,000 nM): 32%
percent inhibition of Factor XI mRNA (human Factor XI mRNA; electroporation, 12,000 nM): 52%
% inhibition of Factor XI mRNA in liver relative to the PBS control (Factor XI mRNA; 25 mg/kg s.c., day 55, liver): 0%
Inhibition of Factor XI protein relative to the PBS control (Factor XI protein; Day 10): 5%
Inhibition of Factor XI protein relative to the PBS control (Factor XI protein; Day 17): 3%
Inhibition of Factor XI protein relative to the PBS control (Factor XI protein; Day 24): 6%
Inhibition of Factor XI protein relative to the PBS control (Factor XI protein; Day 31): 9%
Inhibition of Factor XI protein relative to the PBS control (Factor XI protein; Day 38): 2%
Inhibition of Factor XI protein relative to the PBS control (Factor XI protein; Day 45): 4%
Inhibition of Factor XI protein relative to the PBS control (Factor XI protein; Day 52): 3%
Inhibition of Factor XI protein relative to the PBS control (Factor XI protein; Day 55): 5%
Inhibition of Factor XI protein relative to the PBS control (Factor XI protein; Day −5): 1%
Inhibition of Factor XI protein relative to the PBS control (Factor XI protein; Day −14): 0%

ISIS 449707: microwalk gapmer of Table 53 (antisense e[5mC]*eA*e[5mC]*eA*dG*dT*dT*dT*d[5mC]*dT*dG*dG*e[5mC]*eA*eG*eG)
Factor XI mRNA in liver (in words) (Factor XI mRNA): significant reduction of Factor XI mRNA
IL-1β level ([1]; 25 mg/kg s.c., day 55): 97 pg/mL
MIP-1β level ([1]; 25 mg/kg s.c., day 55): 49 pg/mL
IL-1β level [1, 2]: 115 pg/mL
MIP-1β level [1, 2]: 13 pg/mL

ISIS 449708: microwalk gapmer of Table 53 (antisense eA*e[5mC]*eA*dG*dT*dT*dT*d[5mC]*dT*dG*dG*e[5mC]*eA*eG)
Factor XI mRNA in liver (in words) (Factor XI mRNA): significant reduction of Factor XI mRNA
IL-1β level ([1]; 25 mg/kg s.c., day 55): 131 pg/mL
MIP-1β level ([1]; 25 mg/kg s.c., day 55): 128 pg/mL
IL-1β level [1, 2]: 35 pg/mL
MIP-1β level [1, 2]: 19 pg/mL

ISIS 449709: microwalk gapmer of Table 53 (antisense eG*e[5mC]*eA*e[5mC]*dA*dG*dT*dT*dT*d[5mC]*dT*dG*dG*d[5mC]*eA*eG*eG*e[5mC])
Factor XI mRNA in liver (in words) (Factor XI mRNA): significant reduction of Factor XI mRNA
Factor XI protein levels (in words) (Factor XI protein; cynomolgus monkeys, Example 30): time-dependent decrease in protein levels
IL-1β level ([1]; 25 mg/kg s.c., day 55): 181 pg/mL
MIP-1β level ([1]; 25 mg/kg s.c., day 55): 47 pg/mL
IL-1β level [1, 2]: 137 pg/mL
MIP-1β level [1, 2]: 14 pg/mL

ISIS 449710: microwalk gapmer of Table 53 (antisense e[5mC]*eA*e[5mC]*dA*dG*dT*dT*dT*d[5mC]*dT*dG*dG*d[5mC]*eA*eG*eG)
Factor XI mRNA in liver (in words) (Factor XI mRNA): significant reduction of Factor XI mRNA
IL-1β level ([1]; 25 mg/kg s.c., day 55): 286 pg/mL
MIP-1β level ([1]; 25 mg/kg s.c., day 55): 53 pg/mL
IL-1β level [1, 2]: 271 pg/mL
MIP-1β level [1, 2]: 18 pg/mL
